Tests used:
[1] = Forced degradation experiment of SnADAM (HPLC); assay type: physicochemical
Protocol: Three portions of 0.50 mg SnADAM were dissolved in MeOH solvent, respectively added with 1 M HCl solution, 1 M NaOH solution, and 3% H2O2 solution, and then reacted at room temperature for 30 min. The first two portions of solutions were respectively neutralized with 1 M NaOH and 1 M HCl and then added with suitable amounts of MeOH to dissolve the precipitate, while the third portion of solution was directly diluted with a suitable amount of MeOH after the reaction and then subjected to HPLC analysis. Another portion of 0.50 mg SnADAM was heated in an oven at 80° C. for 30 min, dissolved in MeOH solvent, and then subjected to HPLC analysis. […] Therefore, SnADAM can be separated from the impurities (as shown in FIG. 2) and the degradation products (as shown in FIGS. 3A-3D) without interfering with the quantitative results.

[2] = Solution stability experiment of SnADAM-MeOH solution (HPLC purity after storage at room temperature); assay type: physicochemical; details: for Purity of tested samples: room temperature
Protocol: 15.3 ppm, 153 ppm and 306 ppm SnADAM (test sample)-MeOH solutions were prepared and stored at room temperature for three days, and then continuously subjected to HPLC analysis. Meanwhile, a portion of fresh 10-320 ppm SnADAM-MeOH solution is prepared each day to serve as calibration standard sample. The SnADAM chromatographic peak retention time (tR), linear least square regression equation, correlation coefficient (r), purity of the test sample, SD, and RSD of the calibration sample were calculated. Referring to Table 5, the linear correlation coefficients of the fresh calibration standards prepared in three days were all greater than 0.9996. After the test sample was stored at room temperature for three days, the SnADAM retention time RSD=0.31%, and the mean purity RSD=0.05%.

SMILES: CCC[CH2][Sn]([CH2]CCC)([CH2]CCC)[c]1ccc(Sc2ccccc2CN(C)C)c(N)c1 [SnADAM, 2-((2-((Dimethylamino)methyl)phenyl)thio)-5-(tri-n-butyltin)-phenylamine]
- Forced degradation ([1]; 1 M HCl solution, room temperature, 30 min): two major degradation products FD1 (tR=1.55 min) and FD2 (tR=1.80 min)
- Forced degradation ([1]; 1 M NaOH solution, room temperature, 30 min): a major degradation product FD1 (tR=1.55 min)
- Forced degradation ([1]; 3% H2O2 solution, room temperature, 30 min): a major degradation product FD1 (tR=1.55 min) having the same retention time as H2O2
- Forced degradation ([1]; heated in an oven at 80° C. for 30 min): little effect on the degradation
- Purity of tested samples ([2]; SnADAM-MeOH solution 15.3 ppm, day 1): 98.17 ± 0.17 (0.18%, n = 3)
- Purity of tested samples ([2]; SnADAM-MeOH solution 15.3 ppm, day 2): 98.12 ± 0.21 (0.21%, n = 3)
- Purity of tested samples ([2]; SnADAM-MeOH solution 15.3 ppm, day 3): 97.96 ± 0.73 (0.74%, n = 3)
- Purity of tested samples ([2]; SnADAM-MeOH solution 153.0 ppm, day 1): 97.12 ± 0.15 (0.15%, n = 3)
- Purity of tested samples ([2]; SnADAM-MeOH solution 153.0 ppm, day 2): 97.00 ± 0.25 (0.26%, n = 3)
- Purity of tested samples ([2]; SnADAM-MeOH solution 153.0 ppm, day 3): 97.12 ± 0.04 (0.04%, n = 3)
- Purity of tested samples ([2]; SnADAM-MeOH solution 306.0 ppm, day 1): 96.77 ± 0.07 (0.07%, n = 3)
- Purity of tested samples ([2]; SnADAM-MeOH solution 306.0 ppm, day 2): 96.73 ± 0.06 (0.06%, n = 3)
- Purity of tested samples ([2]; SnADAM-MeOH solution 306.0 ppm, day 3): 96.70 ± 0.20 (0.20%, n = 3)
- Stability of SnADAM-MeOH solution (change in purity) ([2]; stored at room temperature for three days): no significant change in purity

From patent US8153441B2, “Method for analyzing structure and purity of serotonin transporter imaging agent [123 I] ADAM and precursor SnADAM” (Institute of Nuclear Energy Research Atomic Energy Council, priority 2008, dated 2012)
